Test results as given in US20230382911A1 (Hoffmann-La Roche Inc., priority 2021, published 2023).

Target: Recombinant human Mat2a (Homo sapiens (Human), UniProt P31153)
Assay: Determination of Mat2A activity: 384 well format absorbance-based Mat2A inhibition assay
Assay type: biochemical
Details: 12.5 nM Mat2A, 100 μM ATP and Methionine, 2% DMSO, 120 minutes at RT, Biomol Green, absorbance at 635 nm
Experimental: Determination of Mat2A Activity
Measurement of Mat2A inhibition is performed in 384 well format absorbance-based assay.
Recombinant human Mat2a (12.5 nM) and serial diluted compounds in DMSO (range of concentrations from 10 μM to […]) or controls (DMSO) are incubated for 15 minutes at room temperature (RT) in assay buffer containing 50 mM HEPES pH 7.5, 50 mM KCl, 50 mM MgCl2, 0.01% Tween 20 and 10 mM DTT. The reaction is initiated by the addition of the combined substrates ATP and Methionine, each at a final concentration of 100 μM. Final assay condition are 12.5 nM Mat2A, 100 μM ATP and Methionine Substrates and 2% DMSO. After 120 minutes of incubation at RT, the reaction is stopped by the addition of Biomol Green. The absorbance signal is measured at λ=635 nm with a multiplate reader (BMG Pherastar reader or equivalent) after 30 min of equilibration at RT.

Recombinant human Mat2a, sequence (P31153 whole entry): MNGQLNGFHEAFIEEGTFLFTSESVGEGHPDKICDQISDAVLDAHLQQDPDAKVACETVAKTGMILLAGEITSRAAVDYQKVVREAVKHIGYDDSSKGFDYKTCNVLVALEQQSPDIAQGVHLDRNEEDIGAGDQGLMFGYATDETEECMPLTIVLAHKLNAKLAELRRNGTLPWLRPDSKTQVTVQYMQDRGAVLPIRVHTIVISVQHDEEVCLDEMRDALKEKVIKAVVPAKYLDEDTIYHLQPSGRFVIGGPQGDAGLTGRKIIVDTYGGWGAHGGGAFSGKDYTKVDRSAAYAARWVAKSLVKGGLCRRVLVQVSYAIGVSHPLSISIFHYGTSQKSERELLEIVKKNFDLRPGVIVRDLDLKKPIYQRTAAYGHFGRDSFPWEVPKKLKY

IC50 | Structure (SMILES)
290 nM | Cc1ccccc1C(=O)n1nc(N)c2ccc(C(F)(F)F)nc21 [Example 25, (3-amino-6-(trifluoromethyl)-1H-pyrazolo[3,4-b]pyridin-1-yl)(o-tolyl)methanone]
120 nM | COc1ccccc1C(=O)n1nc(N)c2ccc(C(F)(F)F)nc21 [Example 26]
69 nM | COc1ccccc1C(=O)n1nc(N)c2ccc(N3CC(F)(F)C3)nc21 [Example 27, (3-amino-6-(3,3-difluoroazetidin-1-yl)-1H-pyrazolo[3,4-b]pyridin-1-yl)(2-methoxyphenyl)methanone]
340 nM | Cc1ccccc1C(=O)n1nc(N)c2ccc(N3CC(F)(F)C3)nc21 [Example 28, (3-amino-6-(3,3-difluoroazetidin-1-yl)-1H-pyrazolo[3,4-b]pyridin-1-yl)(o-tolyl)methanone]
480 nM | Cc1ccccc1C(=O)n1nc(N)c2ccc(C3CCCC3)nc21 [Example 29, (3-amino-6-cyclopentylpyrazolo[3,4-b]pyridin-1-yl)-(2-methylphenyl)methanone]
53 nM | Cc1ccccc1C(=O)n1nc(N)c2ccc(C3=CCCC3)nc21 [Example 30, [3-amino-6-(cyclopenten-1-yl)pyrazolo[3,4-b]pyridin-1-yl]-(2-methylphenyl)methanone]
200 nM | Cc1ccccc1C(=O)n1nc(N)c2ccc(C3CCC3)nc21 [Example 31, (3-amino-6-cyclobutyl-1H-pyrazolo[3,4-b]pyridin-1-yl)(o-tolyl)methanone]
59 nM | COc1ccccc1C(=O)n1nc(N)c2ccc(C3CCC3)nc21 [Example 32]
17 nM | COc1ccccc1C(=O)n1nc(N)c2ccc(C3=CCOC3)nc21 [Example 35, [3-amino-6-(2,5-dihydrofuran-3-yl)pyrazolo[3,4-b]pyridin-1-yl]-(2-methoxyphenyl)methanone]
67 nM | Cc1ccccc1C(=O)n1nc(N)c2ccc(C3=CCOC3)nc21 [Example 36, [3-amino-6-(2,5-dihydrofuran-3-yl)pyrazolo[3,4-b]pyridin-1-yl]-(2-methylyphenyl)methanone]
290 nM | COC1CCCCC1C(=O)n1nc(N)c2ccc(C3CC3)nc21 (stereo not shown) [Example 37, (3-amino-6-cyclopropyl-1H-pyrazolo[3,4-b]pyridin-1-yl)(2-methoxycyclohexyl)methanone]
120 nM | COc1ccccc1C(=O)n1nc(N)c2cc3c(nc21)CC(C)CC3 (stereo not shown) [Example 38, (3-amino-7-methyl-5,6,7,8-tetrahydro-1H-pyrazolo[3,4-b]quinolin-1-yl)(2-methoxyphenyl)methanone]
32 nM | COc1ccccc1C(=O)n1nc(N)c2ccc(C3CC3(F)F)nc21 (stereo not shown) [Example 40, (3-amino-6-(2,2-difluorocyclopropyl)-1H-pyrazolo[3,4-b]pyridin-1-yl)(2-methoxyphenyl)methanone]
150 nM | Cc1ccccc1C(=O)n1nc(N)c2ccc(C3CC3(F)F)nc21 (stereo not shown) [Example 41, (3-amino-6-(2,2-difluorocyclopropyl)-1H-pyrazolo[3,4-b]pyridin-1-yl)(o-tolyl)methanone]
91 nM | COc1c(F)cccc1C(=O)n1nc(N)c2ccc(C3CC3(F)F)nc21 (stereo not shown) [Example 45, (3-amino-6-(2,2-difluorocyclopropyl)-1H-pyrazolo[3,4-b]pyridin-1-yl)(3-fluoro-2-methoxyphenyl)methanone]
55 nM | COc1c(F)cccc1C(=O)n1nc(N)c2cc(F)c(N3CCCC3)nc21 [Example 46, (3-amino-5-fluoro-6-(pyrrolidin-1-yl)-1H-pyrazolo[3,4-b]pyridin-1-yl)(3-fluoro-2-methoxyphenyl)methanone]
25 nM | COc1c(F)cccc1C(=O)n1nc(N)c2ccc(C3=CCOC3)nc21 [Example 47, [3-amino-6-(2,5-dihydrofuran-3-yl)pyrazolo[3,4-b]pyridin-1-yl]-(3-fluoro-2-methoxyphenyl)methanone]
130 nM | Cc1ccccc1C(=O)n1nc(N)c2ccc(C3(C)CC3)nc21 [Example 48, (3-amino-6-(1-methylcyclopropyl)-1H-pyrazolo[3,4-b]pyridin-1-yl)(o-tolyl)methanone]
22 nM | Cc1ncccc1C(=O)n1nc(N)c2ccc(C3CC3(F)F)nc21 (stereo not shown) [Example 49, (3-amino-6-(2,2-difluorocyclopropyl)-1H-pyrazolo[3,4-b]pyridin-1-yl)(2-methylpyridin-3-yl)methanone]
160 nM | CC1OCCC1C(=O)n1nc(N)c2ccc(C3CC3(F)F)nc21 (stereo not shown) [Example 50, (3-amino-6-(2,2-difluorocyclopropyl)-1H-pyrazolo[3,4-b]pyridin-1-yl)(2-methyltetrahydrofuran-3-yl)methanone]

IC50 | Structure (SMILES)
210 nM | Cc1c(F)cccc1C(=O)n1nc(N)c2ccc(C3CC3)nc21 [Example 54, (3-amino-6-cyclopropyl-1H-pyrazolo[3,4-b]pyridin-1-yl)(3-fluoro-2-methylphenyl)methanone]
320 nM | Cc1cccc(C(=O)n2nc(N)c3ccc(C4CC4)nc32)c1C [Example 55, (3-amino-6-cyclopropyl-1H-pyrazolo[3,4-b]pyridin-1-yl)(2,3-dimethylphenyl)methanone]
430 nM | Nc1nn(C(=O)C2CCCCC2)c2nc(C3CC3)ccc12 [Example 56, (3-amino-6-cyclopropyl-1H-pyrazolo[3,4-b]pyridin-1-yl)(cyclohexyl)methanone]
110 nM | COc1c(F)cccc1C(=O)n1nc(N)c2ccc(C3CC3)nc21 [Example 57, (3-amino-6-cyclopropyl-1H-pyrazolo[3,4-b]pyridin-1-yl)(3-fluoro-2-methoxyphenyl)methanone]
300 nM | COc1cc(F)ccc1C(=O)n1nc(N)c2ccc(C3CC3)nc21 [Example 58, (3-amino-6-cyclopropyl-1H-pyrazolo[3,4-b]pyridin-1-yl)(4-fluoro-2-methoxyphenyl)methanone]
37 nM | CCc1ccccc1C(=O)n1nc(N)c2ccc(C3CC3)nc21 [Example 60, (3-amino-6-cyclopropyl-1H-pyrazolo[3,4-b]pyridin-1-yl)(2-ethylphenyl)methanone]
130 nM | Nc1nn(C(=O)c2ccccc2OC(F)F)c2nc(C3CC3)ccc12 [Example 61, (3-amino-6-cyclopropyl-1H-pyrazolo[3,4-b]pyridin-1-yl)(2-(difluoromethoxy)phenyl)methanone]
350 nM | Cc1ocnc1C(=O)n1nc(N)c2ccc(C3CC3)nc21 [Example 62, (3-amino-6-cyclopropyl-1H-pyrazolo[3,4-b]pyridin-1-yl)(5-methyloxazol-4-yl)methanone]
130 nM | Cc1ncsc1C(=O)n1nc(N)c2ccc(C3CC3)nc21 [Example 63, (3-amino-6-cyclopropyl-1H-pyrazolo[3,4-b]pyridin-1-yl)(4-methylthiazol-5-yl)methanone]
41 nM | CC1OCCC1C(=O)n1nc(N)c2ccc(C3CC3)nc21 (stereo not shown) [Example 64, (3-amino-6-cyclopropyl-1H-pyrazolo[3,4-b]pyridin-1-yl)(2-methyltetrahydrofuran-3-yl)methanone]
54 nM | Cc1c(C#N)cccc1C(=O)n1nc(N)c2ccc(C3CC3)nc21 [Example 66, 3-(3-amino-6-cyclopropyl-1H-pyrazolo[3,4-b]pyridine-1-carbonyl)-2-methylbenzonitrile]
49 nM | Nc1nn(C(=O)C2CCOCC2)c2nc(C3CC3)ccc12 [Example 67, (3-amino-6-cyclopropyl-1H-pyrazolo[3,4-b]pyridin-1-yl)(tetrahydro-2H-pyran-4-yl)methanone]
19 nM | Cc1ncccc1C(=O)n1nc(N)c2ccc(C3CC3)nc21 [Example 68, (3-amino-6-cyclopropyl-1H-pyrazolo[3,4-b]pyridin-1-yl)(2-methylpyridin-methylpyridine-3-yl)methanone]
79 nM | Nc1nn(C(=O)C2CCNC(=O)C2)c2nc(C3CC3)ccc12 (stereo not shown) [Example 69, 4-(3-amino-6-cyclopropyl-1H-pyrazolo[3,4-b]pyridine-1-carbonyl)piperidin-2-one]
180 nM | COc1c(C)cccc1C(=O)n1nc(N)c2ccc(C3CC3)nc21 [Example 70, (3-amino-6-cyclopropyl-1H-pyrazolo[3,4-b]pyridin-1-yl)(2-methoxy-3-methylphenyl)methanone]
480 nM | COc1c(Cl)cccc1C(=O)n1nc(N)c2ccc(C3CC3)nc21 [Example 71, (3-amino-6-cyclopropyl-1H-pyrazolo[3,4-b]pyridin-1-yl)(3-chloro-2-methoxyphenyl)methanone]
37 nM | COc1c(C#N)cccc1C(=O)n1nc(N)c2ccc(C3CC3)nc21 [Example 72, 3-(3-amino-6-cyclopropyl-1H-cyclopropyl-1H-pyrazolo[3,4-b]pyridine-1-carbonyl)-2-methoxybenzonitrile]
180 nM | Nc1nn(C(=O)C2CCCOC2)c2nc(C3CC3)ccc12 (stereo not shown) [Example 73, (3-amino-6-cyclopropyl-1H-cyclopropyl-1H-pyrazolo[3,4-b]pyridin-1-yl)(tetrahydro-2H-pyran-3-yl)methanone]
220 nM | Cc1nccnc1C(=O)n1nc(N)c2ccc(C3CC3)nc21 [Example 74, (3-amino-6-cyclopropyl-1H-pyrazolo[3,4-b]pyridin-1-yl)(3-methylpyrazin-2-yl)methanone]

Structure (SMILES) | IC50
COc1ccccc1C(=O)n1nc(N)c2ccc(N3C4CCC3CC4)nc21 [Example 53, [3-amino-6-(7-azabicyclo[2.2.1]heptan-7-yl)pyrazolo[3,4-b]pyridin-1-yl]-(2-methoxyphenyl)methanone] | 240 nM
